One may read the inhibition as the share of the control response that was lost under treatment. A low value points to a response near the control. The term IC50 denotes the concentration at which inhibition is half-maximal.

Sequence of Kv1.5 (P22460 whole entry): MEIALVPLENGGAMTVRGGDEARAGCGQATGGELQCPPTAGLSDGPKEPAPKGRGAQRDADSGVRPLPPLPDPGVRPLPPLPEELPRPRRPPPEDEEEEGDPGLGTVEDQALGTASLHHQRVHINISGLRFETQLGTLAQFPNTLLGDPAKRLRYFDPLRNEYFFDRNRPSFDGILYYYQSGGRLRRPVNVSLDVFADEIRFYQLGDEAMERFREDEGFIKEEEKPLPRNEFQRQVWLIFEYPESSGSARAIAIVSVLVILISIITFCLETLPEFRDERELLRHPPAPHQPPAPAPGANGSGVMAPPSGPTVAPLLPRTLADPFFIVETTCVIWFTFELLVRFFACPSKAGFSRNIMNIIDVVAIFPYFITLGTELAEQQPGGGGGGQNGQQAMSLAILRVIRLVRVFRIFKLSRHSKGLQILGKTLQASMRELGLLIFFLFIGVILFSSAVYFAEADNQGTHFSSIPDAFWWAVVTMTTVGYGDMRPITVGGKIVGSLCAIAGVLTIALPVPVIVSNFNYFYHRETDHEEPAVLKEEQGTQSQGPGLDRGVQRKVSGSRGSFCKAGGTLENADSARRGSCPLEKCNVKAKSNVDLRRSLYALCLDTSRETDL

The first assay concerns the target Kv1.5 (Homo sapiens, UniProt P22460). As to the kind of experiment: Kv1.5 inhibition assay (IKur inhibitor assay per cited references). In kind it is cell-based. As to conditions: at 0.3 μM. The text has this: Assays to determine the degree of activity of a compound as an IKur inhibitor are well known in the art and are described in references such as J. Gen. Physiol. Apr.; 101 (4):513-43, and Br. J. Pharmacol. 1995 May; 115(2):267-74.
`CCCCS(=O)(=O)C1=C(C)Nc2cc(C)nn2C1c1ccc(Cl)c(Cl)c1` (single isomer, unassigned) [Example 18 Isomer 2, 6-(Butylsulfonyl)-7-(3,4-dichlorophenyl)-2,5-dimethyl-4,7-dihydropyrazolo[1,5-a]pyrimidine] had a Kv1.5% inhibition of 28.8%.
Turning to `COc1ccc(S(=O)(=O)C2=C(C)Nc3cc(C)nn3C2c2ccc(Cl)cc2)cc1` (single isomer, unassigned) [Example 19 Isomer 2, 7-(4-Chlorophenyl)-6-(4-methoxyphenylsulfonyl)-2,5-dimethyl-4,7-dihydropyrazolo[1,5-a]pyrimidine], the inhibition at 0.3 µM was found to be 42.3%.
In turn, `COc1ccc(S(=O)(=O)C2=C(C)Nc3cc(C)nn3C2c2nc3ccccc3n2C)cc1` (single isomer, unassigned) [Example 23 Isomer 1, 6-(4-Methoxyphenylsulfonyl)-2,5-dimethyl-7-(1-methyl-1H-benzo[d]imidazol-2-yl)-4,7-dihydropyrazolo[1,5-a]pyrimidine] returned a Kv1.5% inhibition of 6.5%.
Consider `COc1ccc(S(=O)(=O)C2=C(C)Nc3cc(C)nn3C2c2nc3ccccc3n2C)cc1` (single isomer, unassigned) [Example 23 Isomer 2, 6-(4-Methoxyphenylsulfonyl)-2,5-dimethyl-7-(1-methyl-1H-benzo[d]imidazol-2-yl)-4,7-dihydropyrazolo[1,5-a]pyrimidine], for which the Kv1.5% inhibition was 16.6%.
Turning to `COc1ccc(S(=O)(=O)C2=C(C)Nc3cc(C(F)(F)F)nn3C2c2ccc(Cl)cc2)cc1` (single isomer, unassigned) [Example 25 Isomer 1, 7-(4-Chlorophenyl)-6-(4-methoxyphenylsulfonyl)-5-methyl-2-(trifluoromethyl)-4,7-dihydropyrazolo[1,5-a]pyrimidine], the inhibition at 0.3 µM amounted to 85.6%.
On to `COc1ccc(S(=O)(=O)C2=C(C)Nc3cc(C(F)(F)F)nn3C2c2ccc(Cl)cc2)cc1` (single isomer, unassigned) [Example 25 Isomer 2, 7-(4-Chlorophenyl)-6-(4-methoxyphenylsulfonyl)-5-methyl-2-(trifluoromethyl)-4,7-dihydropyrazolo[1,5-a]pyrimidine], for which the Kv1.5% inhibition came out at 82.9%.
Compound `CC1=C(S(=O)(=O)c2ccccc2)C(c2ccc(Cl)cc2)n2nc(C(F)(F)F)cc2N1` (single isomer, unassigned) [Example 26 Isomer 1, 7-(4-Chlorophenyl)-5-methyl-6-(phenylsulfonyl)-2-(trifluoromethyl)-4,7-dihydropyrazolo[1,5-a]pyrimidine] returned an inhibition at 0.3 µM of 85.8%.
As to `CC1=C(S(=O)(=O)c2ccccc2)C(c2ccc(Cl)cc2)n2nc(C(F)(F)F)cc2N1` (single isomer, unassigned) [Example 26 Isomer 2, 7-(4-Chlorophenyl)-5-methyl-6-(phenylsulfonyl)-2-(trifluoromethyl)-4,7-dihydropyrazolo[1,5-a]pyrimidine], the Kv1.5% inhibition was 85.9%.
`CC1=C(S(=O)(=O)c2ccc(F)cc2)C(c2ccc(Cl)cc2)n2nc(C(F)(F)F)cc2N1` (single isomer, unassigned) [Example 27 Isomer 1, 7-(4-Chlorophenyl)-6-(4-fluorophenylsulfonyl)-5-methyl-2-(trifluoromethyl)-4,7-dihydropyrazolo[1,5-a]pyrimidine] registered an inhibition at 0.3 µM of 47.6%.
Compound `CC1=C(S(=O)(=O)c2ccc(C)cc2)C(c2ccc(Cl)cc2)n2nc(C(F)(F)F)cc2N1` (single isomer, unassigned) [Example 28 Isomer 1, 7-(4-Chlorophenyl)-5-methyl-6-tosyl-2-(trifluoromethyl)-4,7-dihydropyrazolo[1,5-a]pyrimidine] yielded an inhibition at 0.3 µM of 77.4%.
Consider `CC1=C(S(=O)(=O)c2ccc(C)cc2)C(c2ccc(Cl)cc2)n2nc(C(F)(F)F)cc2N1` (single isomer, unassigned) [Example 28 Isomer 2, 7-(4-Chlorophenyl)-5-methyl-6-tosyl-2-(trifluoromethyl)-4,7-dihydropyrazolo[1,5-a]pyrimidine], for which the Kv1.5% inhibition is 83.4%.
In turn, `CC1=C(S(=O)(=O)C2CCCCC2)C(c2ccc(Cl)cc2)n2nc(C(F)(F)F)cc2N1` (single isomer, unassigned) [Example 29 Isomer 2, 7-(4-Chlorophenyl)-6-(cyclohexylsulfonyl)-5-methyl-2-(trifluoromethyl)-4,7-dihydropyrazolo[1,5-a]pyrimidine] displayed an inhibition at 0.3 µM of 87.9%.
On to `CCCCS(=O)(=O)C1=C(C)Nc2cc(C(F)(F)F)nn2C1c1ccc(Cl)cc1` (single isomer, unassigned) [Example 30 Isomer 2, 6-(Butylsulfonyl)-7-(4-chlorophenyl)-5-methyl-2-(trifluoromethyl)-4,7-dihydropyrazolo[1,5-a]pyrimidine], for which the inhibition at 0.3 µM was 77%.
As to `CC1=C(S(=O)(=O)c2ccc(Cl)cc2)C(c2ccc(Cl)cc2)n2nc(C(F)(F)F)cc2N1` (single isomer, unassigned) [Example 31 Isomer 1, 7-(4-Chlorophenyl)-6-(4-chlorophenylsulfonyl)-5-methyl-2-(trifluoromethyl)-4,7-dihydropyrazolo[1,5-a]pyrimidine], testing at 0.3 µM gave an inhibition of 82.7%.

The assay is the same for the next values; noted with them: read-out: Kv1.5 IC50.
As to `COc1ccc(S(=O)(=O)C2=C(C)Nc3cc(C)nn3C2c2ccc(Cl)cc2)cc1` (single isomer, unassigned) [Example 19 Isomer 1, 7-(4-Chlorophenyl)-6-(4-methoxyphenylsulfonyl)-2,5-dimethyl-4,7-dihydropyrazolo[1,5-a]pyrimidine], the 50% inhibitory concentration (IC50) turned out to be 55 nM.
As for `COc1ccc(S(=O)(=O)C2=C(C)Nc3cc(C)nn3C2c2ccc(C)c(F)c2)cc1` (single isomer, unassigned) [Example 24 Isomer 1, 7-(3-Fluoro-4-methylphenyl)-6-(4-methoxyphenylsulfonyl)-2,5-dimethyl-4,7-dihydropyrazolo[1,5-a]pyrimidine], the IC50 was found to be 148 nM.
For the compound `COc1ccc(S(=O)(=O)C2=C(C)Nc3cc(C)nn3C2c2ccc(C)c(F)c2)cc1` (single isomer, unassigned) [Example 24 Isomer 2, 7-(3-Fluoro-4-methylphenyl)-6-(4-methoxyphenylsulfonyl)-2,5-dimethyl-4,7-dihydropyrazolo[1,5-a]pyrimidine], the IC50 worked out at 322 nM.
On to `CC1=C(S(=O)(=O)c2ccc(F)cc2)C(c2ccc(Cl)cc2)n2nc(C(F)(F)F)cc2N1` (single isomer, unassigned) [Example 27 Isomer 2, 7-(4-Chlorophenyl)-6-(4-fluorophenylsulfonyl)-5-methyl-2-(trifluoromethyl)-4,7-dihydropyrazolo[1,5-a]pyrimidine], for which the half-inhibitory concentration (IC50) was found to be 92 nM.
For `CC1=C(S(=O)(=O)C2CCCCC2)C(c2ccc(Cl)cc2)n2nc(C(F)(F)F)cc2N1` (single isomer, unassigned) [Example 29 Isomer 1, 7-(4-Chlorophenyl)-6-(cyclohexylsulfonyl)-5-methyl-2-(trifluoromethyl)-4,7-dihydropyrazolo[1,5-a]pyrimidine], the half-inhibitory concentration (IC50) turned out to be 204 nM.
The same measure, in the same setting: in the case of `CCCCS(=O)(=O)C1=C(C)Nc2cc(C(F)(F)F)nn2C1c1ccc(Cl)cc1` (single isomer, unassigned) [Example 30 Isomer 1, 6-(Butylsulfonyl)-7-(4-chlorophenyl)-5-methyl-2-(trifluoromethyl)-4,7-dihydropyrazolo[1,5-a]pyrimidine] it was 210 nM.

Source of the values: patent US7507730B2, “Substituted pyrazolo[1,5-a]pyrimidines as potassium channel activators” (Bristol-Myers Squibb Company, priority 2005, dated 2009).
